According to patent EP0986568B1, “NOVEL CLASS OF NUCLEIC ACID CATIONIC TRANSFECTING AGENTS” (Aventis Pharma S.A., priority 1997, dated 1998):

Test system: ADN
Test: Association with DNA, ethidium bromide fluorescence
Format: binding
Conditions: 6 nmoles d'agent transfectant/µg d'ADN, 5 µg bromure d'éthidium/ml; for fluorescence dans le chlorure de sodium NaCl à 300 mM: NaCl 300 mM; for fluorescence dans l'eau: in water
Text: • Les purifications sur HPLC (High Performance Liquid Chromatography) ont été effectuées avec un appareil Waters LC 4000, sur une colonne Vydac C4 éluée par un gradient d'acétonitrile dans l'eau. • Les mesures de fluorescence ont été réalisées sur Perkin Elmer LS50B, en utilisant des longueurs d'onde d'excitation et d'émission respectivement de 260 nm et 590 nm. Les largeurs de fentes pour l'excitation et l'émission sont réglées à 5 nm. La valeur de fluorescence est enregistrée après ajout de 5 µg de bromure d'éthidium/ml en concentration finale. • Les spectres de résonance magnétique nucléaire (RMN) ont été enregistrés, à 300,13 MHz pour le proton ou à 75,47 MHz pour le carbone, sur un appareil Bruker MSL 300 dans le chloroforme deutérié.
Les agents transfectants selon l'invention ont été mis en solution dans l'eau à 10 mM. Les solutions ainsi obtenues sont transparentes et correspondent à une organisation sous forme de micelles de lipide cationique.
Les complexes agent tranfectant/ADN ont été réalisés suivant un rapport de 6 nmoles d'agent transfectant/µg d'ADN.

Substance | fluorescence dans le chlorure de sodium NaCl à 300 mM | fluorescence dans l'eau
méthyl-dioctadécylamido-succinyl-6-tri-O-(amino-2'-éthyl)-2,3,4-β-D-galactopyranoside [8(a)] | 55% | 6%
méthyl-dioctadécylamido-phtalyl-6-tri-O-(amino-2'-éthyl)-2,3,4-β-D-galactopyranoside [8(b)] | 60% | 7%
